PubChem BioAssay AID274 (DTP/NCI, 2004)
Where “and” joins values, the source holds several entries; their conditions need not be identical. Identical values can stand only once. Inconclusive results and toxic doses are left out. Rule for the calls: active = survival T/C of 150% or more; inactive = T/C below 125% in these data. Numbered stars: 1 amine (or outer) side, 2 acyl side, 3 side chain; on linkers, the order of the positions; unused ones are H or OH. Bridge positions count the residues as written; N and C are the ends. Square brackets hold non-standard residues; d marks the D form. Peptide text beside a SMILES is read from it. I, II: the chains in the order shown. Actinocin(1to9) = Cc1c2oc3c(C)ccc(C(=O)[*:2])c3nc-2c(C(=O)[*:1])c(N)c1=O; NMeV = CN[CH](C(=O)O)C(C)C; Aze = O=C(O)[CH]1CCN1; Sar = CNCC(=O)O

Tested on: BDF1 mice, Lewis lung carcinoma iv, survival T/C
Test: NCI In Vivo Anticancer Drug Screen. Data for tumor model Lewis Lung Carcinoma (intravenous) in B6D2F1 (BDF1) mice
Settings: endpoint: median survival time, higher = longer survival
Protocol: The antitumor activity of compounds was measured in mice bearing transplantable tumors. Survival or tumor size were measured and the results are expressed as the measurement made in the treated group (T) divided by the measurement made in the vehicle treated control group (C). The tumor model used in this assay is Lewis Lung Carcinoma (intravenous) in B6D2F1 (BDF1) mice

[1] = dose: 6.25 mg/kg/injection, schedule: Q01DX009 (ip), vehicle: saline with Tween-80
[2] = dose: 12.5 mg/kg/injection, schedule: Q01DX009 (ip), vehicle: saline with Tween-80
[3] = dose: 25.0 mg/kg/injection, schedule: Q01DX009 (ip), vehicle: saline with Tween-80
[4] = dose: 50.0 mg/kg/injection, schedule: Q01DX009 (ip), vehicle: saline with Tween-80
[5] = dose: 6.25 mg/kg/injection, schedule: Q01DX009 (ip), vehicle: saline
[6] = dose: 12.5 mg/kg/injection, schedule: Q01DX009 (ip), vehicle: saline
[7] = dose: 25.0 mg/kg/injection, schedule: Q01DX009 (ip), vehicle: saline
[8] = dose: 50.0 mg/kg/injection, schedule: Q01DX009 (ip), vehicle: saline
[9] = dose: 100.0 mg/kg/injection, schedule: Q01DX009 (ip), vehicle: saline
[10] = dose: 50.0 mg/kg/injection, schedule: Q01DX009 (ip), vehicle: Klucel (hydroxypropylcellulose) (HPC)
[11] = dose: 100.0 mg/kg/injection, schedule: Q01DX009 (ip), vehicle: Klucel (hydroxypropylcellulose) (HPC)
[12] = dose: 100.0 mg/kg/injection, schedule: Q01DX009 (ip), vehicle: saline with Tween-80

Measured: T/C

CC[C@@]1(O)C[C@H](OC2CC(N(C)C)C(OC3CC(O)C(OC4CCC(=O)C(C)O4)C(C)O3)C(C)O2)c2c(cc3c(c2O)C(=O)c2c(O)ccc(O)c2C3=O)[C@H]1C(=O)OC (stereo not given in full)
inactive: dose: 0.12 mg/kg/injection, schedule: Q01DX009 (ip), vehicle: water 103 % of control | dose: 0.25 mg/kg/injection, schedule: Q01DX009 (ip), vehicle: water 103 % of control and 107 % of control | dose: 0.5 mg/kg/injection, schedule: Q01DX009 (ip), vehicle: water 96 % of control and 101 % of control | dose: 0.88 mg/kg/injection, schedule: Q01DX009 (ip), vehicle: water 117 % of control | dose: 1.0 mg/kg/injection, schedule: Q01DX009 (ip), vehicle: water 103 % of control | dose: 1.7 mg/kg/injection, schedule: Q04DX003 (ip), vehicle: water 94 % of control | dose: 1.92 mg/kg/injection, schedule: Q04DX003 (ip), vehicle: water 110 % of control | dose: 2.9 mg/kg/injection, schedule: Q04DX003 (ip), vehicle: water 100 % of control and 117 % of control | dose: 3.9 mg/kg/injection, schedule: Q04DX003 (ip), vehicle: water 118 % of control | dose: 4.8 mg/kg/injection, schedule: Q01DX001 (ip), vehicle: water 109 % of control | dose: 4.8 mg/kg/injection, schedule: Q04DX003 (ip), vehicle: water 109 % of control and 122 % of control | dose: 6.86 mg/kg/injection, schedule: Q01DX001 (ip), vehicle: water 123 % of control | dose: 8.0 mg/kg/injection, schedule: Q04DX003 (ip), vehicle: water 104 % of control | dose: 13.3 mg/kg/injection, schedule: Q04DX003 (ip), vehicle: water 86 % of control

Nc1nc(N)c2c(Cl)c(CNc3ccc(Cl)c(Cl)c3)ccc2n1
inactive: dose: 3.13 mg/kg/injection, schedule: Q01DX009 (ip), vehicle: saline with Tween-80 102 % of control | [1] 99 % of control | [2] 108 % of control | [3] 111 % of control | [4] 98 % of control

Cc1c2oc3c(C)ccc(C(=O)NC4C(=O)NC(C(C)C)C(=O)N5CCCC5C(=O)N(C)CC(=O)N(C)C(C(C)C)C(=O)OC4C)c3nc-2c(C(=O)NC2C(=O)NC(C(C)C)C(=O)N3CCC3C(=O)N(C)CC(=O)N(C)C(C(C)C)C(=O)OC2C)c(N)c1=O (stereo not given) (I: TV[Aze][Sar][NMeV] / II: TVP[Sar][NMeV]; ester I:1-I:C, II:1-II:C; linker I:N-II:N via Actinocin(1to9); configuration not given here)
inactive: dose: 37.5 micrograms/kg/injection, schedule: Q01DX009 (ip), vehicle: saline + alcohol 105 % of control | dose: 75.0 micrograms/kg/injection, schedule: Q01DX009 (ip), vehicle: saline + alcohol 113 % of control | dose: 194.0 micrograms/kg/injection, schedule: Q04DX003 (ip), vehicle: saline + alcohol 92 % of control | dose: 270.0 micrograms/kg/injection, schedule: Q04DX003 (ip), vehicle: saline + alcohol 95 % of control | dose: 324.0 micrograms/kg/injection, schedule: Q04DX003 (ip), vehicle: saline + alcohol 105 % of control | dose: 450.0 micrograms/kg/injection, schedule: Q04DX003 (ip), vehicle: saline + alcohol 104 % of control | dose: 540.0 micrograms/kg/injection, schedule: Q04DX003 (ip), vehicle: saline + alcohol 105 % of control | dose: 648.0 micrograms/kg/injection, schedule: Q01DX001 (ip), vehicle: saline + alcohol 94 % of control | dose: 1080.0 micrograms/kg/injection, schedule: Q01DX001 (ip), vehicle: saline + alcohol 94 % of control

NC(=O)c1cn(C2OC(CO)C(O)C2O)c2ncnc(N)c12 (stereo not given)
inactive: dose: 0.38 mg/kg/injection, schedule: Q01DX009 (ip), vehicle: Klucel (hydroxypropylcellulose) (HPC) 95 % of control | dose: 0.75 mg/kg/injection, schedule: Q01DX009 (ip), vehicle: Klucel (hydroxypropylcellulose) (HPC) 101 % of control | dose: 1.5 mg/kg/injection, schedule: Q01DX009 (ip), vehicle: Klucel (hydroxypropylcellulose) (HPC) 92 % of control

Nc1ccn([C@@H](C=O)O[C@@H](C=O)CO)c(=O)n1
inactive: [5] 96 % of control | [6] 105 % of control | [7] 100 % of control | [8] 96 % of control | [9] 97 % of control

O=C(CCN1CC1)OCCOC(=O)CCN1CC1
inactive: dose: 1.5 mg/kg/injection, schedule: Q01DX009 (ip), vehicle: saline 111 % of control | dose: 3.0 mg/kg/injection, schedule: Q01DX009 (ip), vehicle: saline 107 % of control | dose: 6.0 mg/kg/injection, schedule: Q01DX009 (ip), vehicle: saline 99 % of control | dose: 24.0 mg/kg/injection, schedule: Q01DX009 (ip), vehicle: saline 107 % of control

CC(=O)c1c(O)c(C)c(O)c2c1OC1=CC(=O)C(C(C)=O)C(=O)C12C (stereo not given)
inactive: dose: 50.0 mg/kg/injection, schedule: Q01DX009 (ip), vehicle: gum acacia 89 % of control

COc1nc(=O)n(C2C=CC(=O)O2)cc1F (stereo not given)
inactive: [5] 97 % of control | [6] 102 % of control | [7] 96 % of control | [8] 102 % of control | [9] 97 % of control

Cc1ccc(S(=O)(=O)NC(=O)C2C(=O)CC3(CCCCC3)CC2=O)cc1
inactive: [10] 105 % of control | [11] 101 % of control

Nc1cc2c3c(cccc3c1)C(=O)N(CCN1CCCC1)C2=O
inactive: dose: 3.12 mg/kg/injection, schedule: Q01DX009 (ip), vehicle: saline with Tween-80 99 % of control | [1] 103 % of control | [2] 103 % of control | [3] 115 % of control | [4] 113 % of control | [12] 119 % of control

NCCCNCCSP(=O)(O)O
inactive: dose: 300.0 mg/kg/injection, schedule: Q01DX001 (ip), vehicle: saline 88 % of control | dose: 500.0 mg/kg/injection, schedule: Q01DX001 (ip), vehicle: saline 88 % of control

CCc1cc(C(N)=S)ccn1
inactive: dose: 72.0 mg/kg/injection, schedule: Q01DX007 (ip), vehicle: Klucel (hydroxypropylcellulose) (HPC) 96 % of control | dose: 102.9 mg/kg/injection, schedule: Q01DX007 (ip), vehicle: Klucel (hydroxypropylcellulose) (HPC) 95 % of control | dose: 147.0 mg/kg/injection, schedule: Q01DX007 (ip), vehicle: Klucel (hydroxypropylcellulose) (HPC) 86 % of control | dose: 300.0 mg/kg/injection, schedule: Q01DX007 (ip), vehicle: Klucel (hydroxypropylcellulose) (HPC) 99 % of control

Nc1ccccc1N
inactive: dose: 12.5 mg/kg/injection, schedule: Q01DX009 (ip), vehicle: Klucel (hydroxypropylcellulose) (HPC) 96 % of control | dose: 25.0 mg/kg/injection, schedule: Q01DX009 (ip), vehicle: Klucel (hydroxypropylcellulose) (HPC) 107 % of control | [10] 101 % of control | [11] 91 % of control

COc1ccc(C(=O)c2no[n+]([O-])c2C(=O)c2ccc(OC)cc2)cc1
inactive: [2] 104 % of control | [3] 102 % of control | [4] 95 % of control | [12] 98 % of control | dose: 200.0 mg/kg/injection, schedule: Q01DX009 (ip), vehicle: saline with Tween-80 100 % of control | dose: 400.0 mg/kg/injection, schedule: Q01DX009 (ip), vehicle: saline with Tween-80 111 % of control

CCC1OCCN1C(C)C (stereo not given)
inactive: [7] 95 % of control | [8] 124 % of control

ClC1(c2ccccc2)c2ccc(Br)cc2-c2cc(Br)ccc21
inactive: [3] 102 % of control | [4] 105 % of control | [12] 110 % of control
